According to patent US12157749B2, “Borate-based drug and use thereof” (Chengdu Origin Biotechnology Limited Company, priority 2018, dated 2024):
Several values for one entry are separate records, joined by “and”; a condition that tells them apart may be missing. Equal entries are not always repeated. Entries after “also recorded” stand apart in the source; their conditions may differ. Marks after values point to notes of the source that are not given here.

Tested on: transplantation tumor of human multiple myeloma MM.1S
Test: Transplantation tumor model of human multiple myeloma cells MM.1S in CB17-SCID mouse, low dose 0.00554 mmol/kg (Activity Experiment Example 4)
Type: in vivo
Conditions: for inhibition of tumor growth (in words) / inhibitory effect on tumor growth compared with other test samples / inhibitory effect sequence on transplantation tumor growth from strong to weak / onset time / effective time of controlling tumor growth (in words) / area under the curve of tumor volume vs. time curve, ascending sequence / tumor weight (g) / tumor inhibition rate (%): 0.00554 mmol/kg oral gavage; for area under the curve of tumor volume vs. time curve, ascending sequence: FIG. 2; for tumor weight (g): X ± SD, tumor dissected at end of experiment; for tumor weight (g) / tumor inhibition rate (%): five doses; for Relative tumor proliferation rate T/C(%): 0.00554 mmol/kg oral gavage twice a week; for tumor inhibition rate (%): from tumor weight at end of experiment
Description: The model used in this experiment was the transplantation tumor model of human multiple myeloma cells line MM.1S in CB17-SCID mouse. Cryopreserved MM.1S cells were cultured in vitro conventionally after resuscitation. The cells were collected in logarithmic growth phase and diluted with serum-free culture medium or PBS to form a tumor cell suspension with a concentration of 5×10^7/ml. The tumor cell suspensions prepared above were taken with a 1 ml syringe and injected subcutaneously into the left armpit backrest side of the mouse, and 0.2 ml was injected into each inoculation site. About 1 to 2 weeks after the cultured tumor cells were injected into the CB17-SCID mouse, the tumors were touched under the armpit. When the tumor volume was more than 100 mm^3, the tumor volume was measured and calculated, and the mice were randomly divided into groups according to the tumor volume. The administration doses of different test samples were equivalent doses on a molar basis with a specific dose of 0.00554 mmol/kg. Administration mode and frequency: the test samples were administered by oral gavage with a volume of 10 ml/kg. The model group was given equal volume of solvent. The test samples were administered twice a week for five times with an administration dose of 0.00554 mmol/kg, i.e., the dose of MLN9708 being 2.86 mg/kg, the dose of the compound 6q being 2.77 mg/kg, the dose of the compound 6f being 2.80 mg/kg, and the dose of the compound 6b being 3.02 mg/kg, for a duration of 17 days. The administration was conducted on the 1st, 5th, 8th, 12th and 15th day, and the experiment was finished on the 17th day. The mental state, activity, eating and other general conditions of mice were observed every day, and the weight was measured twice a week. The short diameter (a) and long diameter (b) of each mouse tumor were measured with a vernier caliper twice a week, and the tumor volume was calculated according to formula (a^2×b)/2. The relative tumor volume (RTV) was calculated according to the measured tumor volume, RTV=Vt/V0. Wherein, V0 was the tumor volume when random grouping (i.e. d0) and Vt was the tumor volume at each measurement (i.e. […]). According to the following formula, evaluation index of anti-tumor activity relative to the relative tumor proliferation rate T/C (%) was calculated: Note: TRTV is RTV of treatment group, and CRTV is RTV of model control group. According to “Technical Guidelines for Non-clinical Research of Cytotoxic Antitumor Drugs” issued by State Food and Drug Administration in China, the evaluation standard is T/C %≤40%, and after statistics procession, p<0.05 is considered significant. On the 19th day, after the tumor was weighted and measured, the mice in each group were killed, and the tumor was dissected and weighed. According to the tumor weight, the tumor inhibition rate (TGI) was calculated, TGI=((average tumor weight of model group−average tumor weight of administration group)/average tumor weight of model group)×100%.

CC(C)C[C@H](NC(=O)CNC(=O)c1cc(Br)ccc1F)B1OC(=O)C(c2ccccc2)O1 (stereo partly drawn) [Compound 6f, 2-fluoro-5-bromo-N-[2-({(1R)-3-methyl-1-[4-oxo-5-phenyl-1,3,2-dioxaborolan-2-yl]butyl}amino)-2-oxoethyl]benzamide]
inhibition of tumor growth (in words): can also significantly inhibit tumor growth | inhibitory effect on tumor growth compared with other test samples: the inhibitory effect is weaker than that of compound 6b; also recorded: its inhibitory activity is weaker than that the compound of 6b | inhibitory effect sequence on transplantation tumor growth from strong to weak: 6b>6f>6q>MLN9708 | onset time / effective time of controlling tumor growth (in words): longer onset time to control tumor growth than that of the compound 6b | area under the curve of tumor volume vs. time curve, ascending sequence: compound 6b<compound 6f<compound 6q | tumor weight (g): 0.741 ± 0.917^★★▴▴ g | Relative tumor proliferation rate T/C(%) (day 8): 43.49^▴▴● % | Relative tumor proliferation rate T/C(%) (day 12): 31.17% | Relative tumor proliferation rate T/C(%) (day 15): 30.15^▴▴ % | Relative tumor proliferation rate T/C(%) (day 17): 22.86^▴▴ % | tumor inhibition rate (%): 74.82%

CC(C)C[C@H](NC(=O)CNC(=O)c1cc(Cl)ccc1F)B1OC(=O)C(CC(=O)O)(CC(=O)O)O1 [Compound 6q, (R)-2,2′-(2-(1-(2-(2-fluoro-5-chloro-benzoylamino)acetylamino)-3-methylbutyl)-5-oxo-1,3,2-dioxaborolan-4,4-diyl)diacetic acid]
inhibition of tumor growth (in words): can also significantly inhibit tumor growth | inhibitory effect on tumor growth compared with other test samples: the inhibitory effect is weaker than that of compound 6b | inhibitory effect sequence on transplantation tumor growth from strong to weak: 6b>6f>6q>MLN9708 | onset time / effective time of controlling tumor growth (in words): the effective time of controlling tumor growth was longer than the 6f group and significantly longer than the 6b group | area under the curve of tumor volume vs. time curve, ascending sequence: compound 6b<compound 6f<compound 6q | tumor weight (g): 0.945 ± 0.603^★★▴▴● g | Relative tumor proliferation rate T/C(%) (day 8): 47.34^▴▴●● % | Relative tumor proliferation rate T/C(%) (day 12): 67.42% and 67.42^▴▴● % | Relative tumor proliferation rate T/C(%) (day 15): 45.35^▴▴ % | Relative tumor proliferation rate T/C(%) (day 17): 29.00% and 29.20^▴▴ % | tumor inhibition rate (%): 67.85%
